Data taken from the supplement of paper PMC11208160.

Assay: recombinant UMI read abundance after kanamycin selection (control-corrected) (log10(CPM+1)); higher = more efficient recombination; extreme values may be limits of the assay; sequences stand for … in AGTGCAGAGAAAATCGGCCAGTTTTCTCTGCCTGCAGTCCGCATGCCGTGGGACCCCTTGGGTTCTAACCTGTTGCCTAGATTTATGCAGCGGACTGCCTTTCTCCCAAAGTGATAAACCGG…AGGTTGGTTTCACT; site = the 11-nt donor
In short: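 Each donor and donor-binding-loop pair was tracked by a 12-nt UMI on a plasmid carrying a promoterless kanamycin gene. With a second plasmid supplying a fixed target and T7-inducible IS621 bridge recombinase, the pool was plated in Escherichia coli on IPTG (0.07 mM) plus kanamycin or unselected. Sequencing of recombinant UMIs across the donor–target junction gave counts expressed as log10(CPM+1) after replicate averaging and control-derived scaling.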
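Also: IS621 bridge recombinase in Escherichia coli cells against a fixed T5 target plasmid.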

Point of comparison: “ATAGGTACATGGACCGGTTTTCCCGGTAATCCGTATTTGAC (site ATAGGTACTGT)”, “recombinant UMI read abundance (log10)” value 2.8. Against it:
- ATACATCCATGGACCGGTTTTCCCGGTAATCCGTATTTGAC (site AAACATCCTGT) — lower, 0
- ATACATCCATGGACCGGTTTTCCCGGTAATCCGTATTTGAC (site ACACATCCTGT) — lower, 0
- ATACATCCATGGACCGGTTTTCCCGGTAATCCGTATTTGAC (site AGACATCCTGT) — lower, 0
- ATACATCCATGGACCGGTTTTCCCGGTAATCCGTATTTGAC (site ATACATCCTGT) — lower, 1.12
- ATACGAACATGGACCGGTTTTCCCGGTAATCCGTATTTGTC (site AAACGAACTGA) — lower, 0
- ATACGAACATGGACCGGTTTTCCCGGTAATCCGTATTTGTC (site ACACGAACTGA) — lower, 0
- ATACGAACATGGACCGGTTTTCCCGGTAATCCGTATTTGTC (site AGACGAACTGA) — lower, 0
- ATACGAACATGGACCGGTTTTCCCGGTAATCCGTATTTGTC (site ATACGAACTGA) — within 0.2 log units, 2.83
- ATACGGACATGGACCGGTTTTCCCGGTAATCCGTATTTGAA (site ATACGGACTTT) — lower, 1.39
- ATACTATCATGGACCGGTTTTCCCGGTAATCCGTATTTGCA (site ACAGTATCTTG) — lower, 1.72
- ATACTATCATGGACCGGTTTTCCCGGTAATCCGTATTTGCA (site ATACTATCTTG) — within 0.2 log units, 2.84
- ATAGACCCATGGACCGGTTTTCCCGGTAATCCGTATTTGAT (site ATAGACCCTAT) — lower, 1.21
- ATAGAGACATGGACCGGTTTTCCCGGTAATCCGTATTTGGT (site ATAGAGACTAC) — lower, 1.75
- ATAGAGACATGGACCGGTTTTCCCGGTAATCCGTATTTGGT (site ATCGAGACTAC) — lower, 0.671
- ATAGAGACATGGACCGGTTTTCCCGGTAATCCGTATTTGGT (site ATGGAGACTAC) — lower, 0.992
- ATAGAGACATGGACCGGTTTTCCCGGTAATCCGTATTTGGT (site ATTGAGACTAC) — lower, 1.03
- ATAGATACATGGACCGGTTTTCCCGGTAATCCGTATTTGCC (site ATAGATACTGG) — lower, 2.54
- ATAGCCTCATGGACCGGTTTTCCCGGTAATCCGTATTTGTA (site ATAGCCTCTTA) — within 0.2 log units, 2.86
- ATAGCTACATGGACCGGTTTTCCCGGTAATCCGTATTTGCG (site ATAGCTACTCG) — lower, 2.1
- ATAGCTACATGGACCGGTTTTCCCGGTAATCCGTATTTGTA (site ATAGCTACTTA) — lower, 2.3
- ATAGGTACATGGACCGGTTTTCCCGGTAATCCGTATTTGAC (site CTAGGTACTGT) — lower, 1.97
- ATAGGTACATGGACCGGTTTTCCCGGTAATCCGTATTTGAC (site GTAGGTACTGT) — lower, 1.68
- ATAGGTACATGGACCGGTTTTCCCGGTAATCCGTATTTGAC (site TTAGGTACTGT) — lower, 2.15
- ATAGTAGCATGGACCGGTTTTCCCGGTAATCCGTATTTGCA (site ACAGTATCTTG) — lower, 0.993
- ATAGTAGCATGGACCGGTTTTCCCGGTAATCCGTATTTGCA (site ATAGTAGCTTG) — higher, 3.08
- ATAGTATCATGGACCGGTTTTCCCGGTAATCCGTATTTGAC (site ATAGTATCTGT) — higher, 3.75
- ATAGTATCATGGACCGGTTTTCCCGGTAATCCGTATTTGAC (site CTAGTATCTGT) — within 0.2 log units, 2.94
- ATAGTATCATGGACCGGTTTTCCCGGTAATCCGTATTTGAC (site GTAGTATCTGT) — lower, 2.49
- ATAGTATCATGGACCGGTTTTCCCGGTAATCCGTATTTGAC (site TTAGTATCTGT) — within 0.2 log units, 2.66
- ATAGTATCATGGACCGGTTTTCCCGGTAATCCGTATTTGCA (site AAAGTATCTTG) — lower, 2.4
- ATAGTATCATGGACCGGTTTTCCCGGTAATCCGTATTTGCA (site ACAGTATCTTG) — lower, 2.34
- ATAGTATCATGGACCGGTTTTCCCGGTAATCCGTATTTGCA (site AGAGTATCTTG) — lower, 2.15
- ATAGTATCATGGACCGGTTTTCCCGGTAATCCGTATTTGCA (site ATAGTATCTTG) — higher, 3.37
- ATAGTATCATGGACCGGTTTTCCCGGTAATCCGTATTTGCC (site ATAGTATCTGG) — higher, 3.34
- ATAGTATCATGGACCGGTTTTCCCGGTAATCCGTATTTGCC (site CTAGTATCTGT) — lower, 0.756
- ATATACCCATGGACCGGTTTTCCCGGTAATCCGTATTTGCG (site ATATACCCTCG) — lower, 0.817
- ATATATGCATGGACCGGTTTTCCCGGTAATCCGTATTTGCT (site ATATATGCTAG) — within 0.2 log units, 2.99
- ATATCACCATGGACCGGTTTTCCCGGTAATCCGTATTTGCT (site ATATCACCTAG) — lower, 0
- ATATCATCATGGACCGGTTTTCCCGGTAATCCGTATTTGCG (site ATATCATCTCG) — lower, 2.11
- ATATCTACATGGACCGGTTTTCCCGGTAATCCGTATTTGTG (site AAATCTACTCA) — lower, 0.252
- ATATCTACATGGACCGGTTTTCCCGGTAATCCGTATTTGTG (site ACATCTACTCA) — lower, 0.246
- ATATCTACATGGACCGGTTTTCCCGGTAATCCGTATTTGTG (site AGATCTACTCA) — lower, 0.401
- ATATCTACATGGACCGGTTTTCCCGGTAATCCGTATTTGTG (site ATATCTACTCA) — lower, 0.895
- ATATCTGCATGGACCGGTTTTCCCGGTAATCCGTATTTGGC (site ATATCTGCTGC) — lower, 0.5
- ATATGAACATGGACCGGTTTTCCCGGTAATCCGTATTTGTC (site ATATGAACTGA) — within 0.2 log units, 2.77
- ATATGTCCATGGACCGGTTTTCCCGGTAATCCGTATTTGTC (site ATATGTCCTGA) — lower, 0.623
- ATATTGTCATGGACCGGTTTTCCCGGTAATCCGTATTTGTC (site ATATTGTCTGA) — higher, 3.25
- ATCAAGGCATGGACCGGTTTTCCCGGTAATCCGTATTTGCG (site ATCAAGGCTCG) — lower, 1.32
- ATCAATACATGGACCGGTTTTCCCGGTAATCCGTATTTGAC (site ATCAATACTGT) — lower, 1.74
- ATCAATACATGGACCGGTTTTCCCGGTAATCCGTATTTGAC (site ATCCATACTGT) — lower, 0
- ATCAATACATGGACCGGTTTTCCCGGTAATCCGTATTTGAC (site ATCGATACTGT) — lower, 2.2
- ATCAATACATGGACCGGTTTTCCCGGTAATCCGTATTTGAC (site ATCTATACTGT) — lower, 0
- ATCAGAACATGGACCGGTTTTCCCGGTAATCCGTATTTGAT (site ATCAGAACTAT) — lower, 1.88
- ATCAGAGCATGGACCGGTTTTCCCGGTAATCCGTATTTGTC (site ATCAGAGCTGA) — lower, 1.82
- ATCATGGCATGGACCGGTTTTCCCGGTAATCCGTATTTGCA (site ATCATGGCTTG) — lower, 2.21
- ATCCAAGCATGGACCGGTTTTCCCGGTAATCCGTATTTGTG (site ATCCAAGCTCA) — lower, 1.51
- ATCCAAGCATGGACCGGTTTTCCCGGTAATCCGTATTTGTG (site ATCCAAGCTCC) — lower, 0.0133
- ATCCAAGCATGGACCGGTTTTCCCGGTAATCCGTATTTGTG (site ATCCAAGCTCG) — lower, 1.13
- ATCCAAGCATGGACCGGTTTTCCCGGTAATCCGTATTTGTG (site ATCCAAGCTCT) — lower, 0.581
- ATCCCAGCATGGACCGGTTTTCCCGGTAATCCGTATTTGAG (site ATCCAAGCTCT) — lower, 0.00798
- ATCCCAGCATGGACCGGTTTTCCCGGTAATCCGTATTTGAG (site ATCCCAGCTCT) — lower, 0.952
- ATCCCAGCATGGACCGGTTTTCCCGGTAATCCGTATTTGAG (site ATCCGAGCTCT) — lower, 0.00574
- ATCCCAGCATGGACCGGTTTTCCCGGTAATCCGTATTTGAG (site ATCCTAGCTCT) — lower, 0
- ATCCCTACATGGACCGGTTTTCCCGGTAATCCGTATTTGAG (site ATCCCTACTCT) — lower, 0.465
- ATCCCTACATGGACCGGTTTTCCCGGTAATCCGTATTTGAG (site CTCCCTACTCT) — lower, 0.196
- ATCCCTACATGGACCGGTTTTCCCGGTAATCCGTATTTGAG (site GTCCCTACTCT) — lower, 0.0127
- ATCCCTACATGGACCGGTTTTCCCGGTAATCCGTATTTGAG (site TTCCCTACTCT) — lower, 0.854
- ATCCGCTCATGGACCGGTTTTCCCGGTAATCCGTATTTGCG (site ATCCGCTCTCG) — lower, 1.19
- ATCCTAGCATGGACCGGTTTTCCCGGTAATCCGTATTTGAG (site ATCCAAGCTCT) — lower, 0.122
- ATCCTAGCATGGACCGGTTTTCCCGGTAATCCGTATTTGAG (site ATCCCAGCTCT) — lower, 0.0117
- ATCCTAGCATGGACCGGTTTTCCCGGTAATCCGTATTTGAG (site ATCCGAGCTCT) — lower, 0.0408
- ATCCTAGCATGGACCGGTTTTCCCGGTAATCCGTATTTGAG (site ATCCTAGCTCT) — lower, 0.651
- ATCCTAGCATGGACCGGTTTTCCCGGTAATCCGTATTTGTT (site AACCTAGCTAA) — lower, 0.00989
- ATCCTAGCATGGACCGGTTTTCCCGGTAATCCGTATTTGTT (site ACCCTAGCTAA) — lower, 0.0137
